Source: US20240415845A1, “Compositions of Iboga Alkaloids and Methods of Treatment” (priority 2022, published 2024)
Where “and” joins values, the source holds several entries; their conditions need not be identical. Equal values may be shown once.

Key:
[1] = test system: special operations veterans with combat and/or blast exposure; conditions: in vivo
[2] = test system: special operations veterans with combat and/or blast exposure; assay: Clinician-Administered PTSD Scale for DSM-5 (CAPS-5); type: in vivo, human
Excerpt: The pre-specified primary outcome was change in the World Health Organization Disability Assessment Schedule 2.0 (WHODAS) (Gold L. H. et al., J. Am. Acad. Psychiatry Law 42, 9 (2014)) from baseline to post-treatment, with change from baseline to the one-month follow-up a secondary outcome. Additional pre-specified secondary outcomes included post-treatment changes on the Clinician Administered PTSD Scale (CAPS-5; Weathers, F. W. et al., Psychol. Assess., 30, 383-395 (2018)), Montgomery-Åsberg Depression Rating Scale (MADRS; Montgomery, S. A., Br. J. Psychiatry J. Ment. Sci., 134, 382-389 (1979)) and the Hamilton-Anxiety Rating Scale (HAM-A; Bruss, G. S., et al., Psychiatry Res., 53, 191-202 (1994)). […] An additional dose of magnesium was administered approximately 12 hours later. To assess the significance of post-treatment changes, linear mixed effects (LME) models were used for each outcome measure. False Discovery Rate (FDR; Benjamini, Y. et al., J. R. Stat. Soc. Ser. B Methodol., 57, 289-300 (1995)) was applied to correct for multiple comparisons.
(§1) To further assess changes in comorbid psychiatric symptoms identified by the models, mean percent reduction, response rate, and remission rate according to the CAPS-5, MADRS and HAM-A (Table 1) were calculated. Response on the CAPS-5, MADRS, and HAM-A was defined as a reduction of at least 10 points (Mitchell, J. M. et al., Nat. Med. 27, 1025-1033(2021)), 50% (Leucht, S. et al., J. Affect. Disord. 210, 287-293 (2017)), and 50% (McIntyre, A. et al., Depress. Anxiety 24, 487-494 (2007)), respectively; remission as loss of diagnosis and a total score below 12 (Mitchell, J. M. et al. supra), <8 (Leucht, S. et al. supra), and <8(McIntyre, A. et al., supra), respectively. One participant's baseline scores met criteria for remission in all three scales and so were excluded from the calculation of response and remission rates, leaving 29 participants in these specific analyses.
With subjects in the fasting state, an intravenous infusion of 1 gram of magnesium sulfate was administered 1-2 hours prior to treatment. […] Medical staff (MD, RN, or EMT) were onsite at a ratio of at least 1 staff per 2 patients throughout treatment for monitoring and management, but no specific coaching or psychological support was provided during treatment.
Clinician administered scales included CAPS-5 (Clinician-administered PTSD Scale for DSM-5), which is a gold standard assessment of PTSD symptom severity; MADRS (Montgomery-Asberg Depression Rating Scale), a measure for depressive symptom severity: and Hamilton-Anxiety Rating Scale (HAM-A) (Shear, M. K. et al., Depress. Anxiety 13, 166-178 (2001)) a measure for anxiety symptom severity: SCID-5 (Structured Clinical Interview for DSM-5) Overview for a historical and environmental context of symptom presentation: MINI DSM-5 (Mini International Neuropsychiatric Interview from DSM-5) for a structured psychodiagnostics assessment: BAT-L (Boston Assessment of TBI-Lifetime) for a lifetime history of TBI and blast exposure: and Ohio State University TBI Identification Method (Short Form) for a lifetime history of TBI. MADRS testing provides an indication of depressive symptoms, CAPS-5 provides an indication of PTSD and SIGH-A provides an indication of anxiety. Collectively these overlap to provide indication of mood, concentration, sleep and tension.
For the CAPS-5, the test version with a […] structured interview of PTSD symptoms over the past week was used, using a 0 (“Absent”) to 4 (“Extreme/Incapacitating”) scale, with possible total scores ranging from 0) to 80. The score range 23 to 34 is considered moderate PTSD while a higher score represents severe PTSD (Weathers, F. W. et al., Psychol. Assess. 30, 383-395 (2018)).

[3] = test system: special operations veterans with combat and/or blast exposure; assay: Clinician-rated psychiatric assessments taken together (CAPS-5, MADRS, HAM-A); type: in vivo, human
Protocol: as §1
The results were similar, with remission rates at one-month follow up of at least 67% (Table 1-3 in Example 1). To determine if the participants with more severe TBI history may be biasing results, a sensitivity analysis excluding the participants with non-mild TBI; results was done, again with the results largely unchanged (Table 1-4 in Example 1), with remission rates at one-month follow up of at least 85%.

[4] = 1-mo. post, only participants meeting relevant MINI diagnostic criteria
[5] = 1-mo. post, only participants with mild TBI
[6] = 1-wk. post, only participants meeting relevant MINI diagnostic criteria
[7] = 1-wk. post, only participants with mild TBI
[8] = one-week and one-month post, 29 participants

SMILES: CCC1CC2CC3c4[nH]c5ccc(OC)cc5c4CCN(C2)C13 (stereo not shown) [ibogaine, Ibogaine]
- Cognitive Flexibility Composite (average of D-KEFS TMT Condition 4, Color/Word Interference Condition 4, Verbal Fluency Category Switching) score [1]: 56.6 ± 5.7 T score and 59.3 ± 5.0 T score
- Cognitive Flexibility Composite, effect size D [1]: 0.74 and 0.43
- Cognitive Inhibition (D-KEFS Color/Word Interference, Condition 3) score [1]: 59.9 ± 6.4 T score and 59.9 ± 7.5 T score
- Cognitive Inhibition (D-KEFS Color/Word Interference, Condition 3), effect size D [1]: 1.22 and 0.62
- Detection (CPT-3 Detection) score [1]: 41.2 ± 8.2 T score and 39.5 ± 7.5 T score
- Detection (CPT-3 Detection), effect size D [1]: 0.86 and 1.05
- Phonemic Fluency (D-KEFS Verbal Fluency) score [1]: 60.8 ± 10.3 T score and 64.0 ± 10.1 T score
- Problem Solving (D-KEFS TT, Total Achievement Score) score [1]: 59.1 ± 7.1 T score and 59.5 ± 7.9 T score
- Problem Solving (D-KEFS TT, Total Achievement Score), effect size D [1]: 0.44 and 0.49
- Reaction Time (CPT-3 Reaction Time) score [1]: 44.1 ± 6.8 T score and 46.4 ± 8.1 T score
- Reaction Time (CPT-3 Reaction Time), effect size D [1]: 0.52 and 0.29
- Semantic Fluency (D-KEFS Verbal Fluency) score [1]: 60.2 ± 12.2 T score and 63.6 ± 7.8 T score
- Sustained Attention (CPT-3 Hit Reaction Time Block Change) score [1]: 50.8 ± 7.9 T score and 51.2 ± 7.7 T score
- Verbal Memory (HVLT-R) score [1]: 49.0 ± 9.2 T score and 53.1 ± 8.8 T score
- Visuospatial Memory (BVMT-R) score [1]: 58.8 ± 7.1 T score and 58.3 ± 6.6 T score
- Visuospatial Memory (BVMT-R), effect size D [1]: 0.32 and 0.50
- adverse effect on processing speed, individual D-KEFS results [1]: no indication of an adverse effect
- declines across any neuropsychological performance domain [1]: No declines
- executive functioning (inhibition, cognitive flexibility, problem-solving, phonemic fluency, working memory), effect sizes D [1]: 0.31-1.22
- performance changes in language (semantic fluency) [1]: No significant performance changes
- processing speed, effect sizes D [1]: 0.97-1.34
- slowing of reaction time, effect sizes D [1]: 0.29-0.52
- sustained attention accuracy (detection), effect sizes D [1]: 0.86-1.05
- Processing Speed (PSI, WAIS-IV) score ([1]; iv): 59.2 ± 9.7 T score and 61.6 ± 10.7 T score
- Processing Speed (PSI, WAIS-IV), effect size D ([1]; iv): 0.97 and 1.34
- Working Memory (WMI, WAIS-IV) score ([1]; iv): 57.0 ± 9.5 T score and 57.6 ± 9.2 T score
- Working Memory (WMI, WAIS-IV), effect size D ([1]; iv): 0.37 and 0.31
- CAPS-5 % Reduction vs Baseline [2, 4]: 86% ± 19%
- CAPS-5 Remission Rate [2, 4]: 83%
- CAPS-5 Response Rate [2, 4]: 100%
- CAPS-5 score ([2]; 1-mo. post, only participants meeting relevant MINI diagnostic criteria at baseline (N 23), baseline 35.7 ± 11.0): 6.0
- CAPS-5 % Reduction vs Baseline [2, 5]: 88% ± 17%
- CAPS-5 Remission Rate [2, 5]: 85%
- CAPS-5 Response Rate [2, 5]: 100%
- CAPS-5 score ([2]; 1-mo. post, only participants with mild TBI (N 28), baseline 31.7 ± 13.0): 4.8
- CAPS-5 score ([2]; 1-wk post, only participants meeting relevant MINI diagnostic criteria at baseline (N 23), baseline 35.7 ± 11.0): 4.4
- CAPS-5 % Reduction vs Baseline [2, 6]: 87% ± 17%
- CAPS-5 Remission Rate [2, 6]: 83%
- CAPS-5 Response Rate [2, 6]: 96%
- CAPS-5 % Reduction vs Baseline [2, 7]: 89% ± 14%
- CAPS-5 Remission Rate [2, 7]: 89%
- CAPS-5 Response Rate [2, 7]: 96%
- CAPS-5 score ([2]; 1-wk. post, only participants with mild TBI (N 28), baseline 31.7 ± 13.0): 3.6
- CAPS-5, effect size D ([2]; baseline vs 1-mo. post, only participants meeting relevant MINI diagnostic criteria (N 23)): 2.98
- CAPS-5, effect size D ([2]; baseline vs 1-mo. post, only participants with mild TBI (N 28)): 2.49
- CAPS-5, effect size D ([2]; baseline vs 1-wk post, only participants with mild TBI (N 28)): 2.28
- CAPS-5, effect size D ([2]; baseline vs 1-wk. post, only participants meeting relevant MINI diagnostic criteria (N 23)): 2.75
- CAPS-5, effect size D ([2]; baseline vs one-month post, all participants): 2.54
- CAPS-5, effect size D ([2]; baseline vs one-week post, all participants): 2.30
- subjects lower than mild PTSD symptom severity (CAPS-5) ([2]; one month following treatment (FIG. 3B), mild = 12-22): 80%
- CAPS-5 Remission Rate ([2]; one-month post, 29 participants, remission = loss of diagnosis and total score below 12): 86%
- CAPS-5 Response Rate ([2]; one-month post, 29 participants, response = reduction of at least 10 points): 100%
- CAPS-5 score ([2]; one-month post, all participants, baseline 31.7 ± 12.5, mean ± SD): 4.8
- CAPS-5 % Reduction vs Baseline ([2]; one-month post, all participants, mean ± SD): 88% and 88% ± 17%
- CAPS-5 Remission Rate ([2]; one-week post, 29 participants, remission = loss of diagnosis and total score below 12): 86%
- CAPS-5 Response Rate ([2]; one-week post, 29 participants, response = reduction of at least 10 points): 97%
- CAPS-5 score ([2]; one-week post, all participants, baseline 31.7 ± 12.5, mean ± SD): 3.9
- CAPS-5 % Reduction vs Baseline ([2]; one-week post, all participants, mean ± SD): 88% ± 15%
- remission rates on CAPS-5, MADRS and HAM-A ([3]; one-month follow up, excluding participants with non-mild TBI): at least 85%
- remission rates on CAPS-5, MADRS and HAM-A ([3]; one-month follow up, subgroups meeting criteria for the disorder assessed by the scale): at least 67%
- remission rates on CAPS-5, MADRS and HAM-A [3, 8]: at least 83%
- response rates on CAPS-5, MADRS and HAM-A [3, 8]: at least 93%
- mean percent reductions on CAPS-5, MADRS and HAM-A ([3]; one-week and one-month post, all participants): at least 81%
- remission rates for comorbid PTSD, depression, and anxiety ([3]; secondary analyses): around 80%
